pKi: −log10 of the molar value.
Columns and labels:
[1] = molecular target: yeast α-glucosidase (Saccharomyces cerevisiae, UniProt P53341); assay: In vitro α-glucosidase inhibition assay; format: biochemical; settings: for Fold decrease of anti-α-glucosidase activity relative to compound 10e: compared with 4-ethylphenyl derivative 10e; for Fold decrease of inhibitory activity relative to compound 10g: compared with 2,6-dimethyl derivative 10g; for Fold increase of inhibitory activity relative to compound 10m: compared with 4-nitro derivative 10m
Sequence of yeast α-glucosidase (P53341 whole entry): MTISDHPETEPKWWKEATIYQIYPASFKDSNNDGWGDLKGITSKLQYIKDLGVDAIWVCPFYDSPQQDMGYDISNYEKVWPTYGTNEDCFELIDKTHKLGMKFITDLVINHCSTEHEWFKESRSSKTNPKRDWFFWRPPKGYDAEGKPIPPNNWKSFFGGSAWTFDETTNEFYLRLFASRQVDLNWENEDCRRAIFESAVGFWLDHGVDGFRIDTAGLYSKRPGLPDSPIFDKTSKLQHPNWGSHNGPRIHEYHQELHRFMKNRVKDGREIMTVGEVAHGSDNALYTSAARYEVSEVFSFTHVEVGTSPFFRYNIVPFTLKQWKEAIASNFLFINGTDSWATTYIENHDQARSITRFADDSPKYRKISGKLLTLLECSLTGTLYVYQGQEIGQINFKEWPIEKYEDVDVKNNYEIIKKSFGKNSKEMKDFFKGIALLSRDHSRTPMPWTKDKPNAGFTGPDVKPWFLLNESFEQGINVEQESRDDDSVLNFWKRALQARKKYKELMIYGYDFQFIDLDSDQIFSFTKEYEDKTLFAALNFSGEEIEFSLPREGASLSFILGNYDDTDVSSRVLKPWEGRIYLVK

[2] = molecular target: α-glucosidase (Saccharomyces cerevisiae, UniProt P53341); assay: Kinetic study of α-glucosidase inhibition; format: biochemical, yeast
Sequence of α-glucosidase (P53341 whole entry): as above

NC(=S)N/N=C/c1cc2ccccc2nc1SCc1cn(CC(=O)Nc2ccccc2)nn1 [Compound 10a, (E)-2-(4-(((3-((2-Carbamothioylhydrazineylidene)methyl)quinolin-2-yl)thio)methyl)-1H-1,2,3-triazol-1-yl)-N-phenylacetamide]
Fold decrease of anti-α-glucosidase activity relative to compound 10e [1]: 5.38 folds

Cc1ccccc1NC(=O)Cn1cc(CSc2nc3ccccc3cc2/C=N/NC(N)=S)nn1 [Compound 10b, (E)-2-(4-(((3-((2-Carbamothioylhydrazineylidene)methyl)quinolin-2-yl)thio)methyl)-1H-1,2,3-triazol-1-yl)-N-(o-tolyl)acetamide]
Fold decrease of inhibitory activity relative to compound 10g [1]: 2.3 folds

Cc1ccc(NC(=O)Cn2cc(CSc3nc4ccccc4cc3/C=N/NC(N)=S)nn2)cc1 [Compound 10d, (E)-2-(4-(((3-((2-Carbamothioylhydrazineylidene)methyl)quinolin-2-yl)thio)methyl)-1H-1,2,3-triazol-1-yl)-N-(p-tolyl)acetamide]
Fold decrease of anti-α-glucosidase activity relative to compound 10e [1]: 6.97 folds

Cc1cccc(NC(=O)Cn2cc(CSc3nc4ccccc4cc3/C=N/NC(N)=S)nn2)c1C [Compound 10f, (E)-2-(4-(((3-((2-Carbamothioylhydrazineylidene)methyl)quinolin-2-yl)thio)methyl)-1H-1,2,3-triazol-1-yl)-N-(2,3-dimethylphenyl)acetamide]
Fold decrease of inhibitory activity relative to compound 10g [1]: 1.6 folds

NC(=S)N/N=C/c1cc2ccccc2nc1SCc1cn(CC(=O)Nc2cccc([N+](=O)[O-])c2)nn1 [Compound 10k, (E)-2-(4-(((3-((2-Carbamothioylhydrazineylidene)methyl)quinolin-2-yl)thio)methyl)-1H-1,2,3-triazol-1-yl)-N-(3-nitrophenyl)acetamide]
Fold increase of inhibitory activity relative to compound 10m [1]: 2.58 folds

Cc1cc([N+](=O)[O-])ccc1NC(=O)Cn1cc(CSc2nc3ccccc3cc2/C=N/NC(N)=S)nn1 [Compound 10l, (E)-2-(4-(((3-((2-Carbamothioylhydrazineylidene)methyl)quinolin-2-yl)thio)methyl)-1H-1,2,3-triazol-1-yl)-N-(2-methyl-4-nitrophenyl)acetamide]
Fold increase of inhibitory activity relative to compound 10m [1]: 1.82 folds

NC(=S)N/N=C/c1cc2ccccc2nc1SCc1cn(CC(=O)NCCc2ccccc2)nn1 [Compound 10n, (E)-2-(4-(((3-((2-Carbamothioylhydrazineylidene)methyl)quinolin-2-yl)thio)methyl)-1H-1,2,3-triazol-1-yl)-N-phenethylacetamide]
Improving the inhibitory effect (times more potent than acarbose) [1]: 15.5 | pKi [2]: 4.32 | Mode of α-glucosidase inhibition ([2]; Lineweaver–Burk plot, inhibitor 0, 12.1, 24.2, 48.4 µM): competitive α-glucosidase inhibitor

From article PMC11680592 (Scientific Reports, 2024)
